The compounds below were run against T1, BTK (Homo sapiens, UniProt Q06187) (assay: Cellular BTK HTRF Assay (BTK degradation in Ramos cells)). Conditions: four hours incubation, 37° C., BTK levels relative to DMSO-treated cells.
T1 construct: endogenous in cells; host or cells: Ramos (ATCC CRL-1596)
T1 sequence (Q06187 whole entry): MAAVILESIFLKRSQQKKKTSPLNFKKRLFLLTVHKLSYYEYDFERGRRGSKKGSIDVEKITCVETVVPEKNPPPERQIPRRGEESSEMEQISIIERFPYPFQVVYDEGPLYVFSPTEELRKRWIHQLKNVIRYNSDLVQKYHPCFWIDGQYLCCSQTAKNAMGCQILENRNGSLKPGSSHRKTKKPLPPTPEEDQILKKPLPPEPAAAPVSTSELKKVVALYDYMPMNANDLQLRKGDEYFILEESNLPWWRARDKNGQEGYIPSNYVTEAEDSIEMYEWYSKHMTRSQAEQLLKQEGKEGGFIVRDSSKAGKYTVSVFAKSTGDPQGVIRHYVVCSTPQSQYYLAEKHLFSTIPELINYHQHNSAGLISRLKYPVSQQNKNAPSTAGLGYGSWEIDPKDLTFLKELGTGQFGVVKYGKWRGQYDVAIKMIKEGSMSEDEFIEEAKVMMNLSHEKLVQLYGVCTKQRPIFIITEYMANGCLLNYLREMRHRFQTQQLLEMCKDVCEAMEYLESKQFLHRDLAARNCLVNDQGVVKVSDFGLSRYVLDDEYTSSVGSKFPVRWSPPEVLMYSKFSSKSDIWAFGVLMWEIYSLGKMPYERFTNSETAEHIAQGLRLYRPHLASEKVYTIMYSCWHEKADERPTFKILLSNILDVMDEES
Assay type: cell-based
Method: Ramos (CRL-1596) cells were obtained from American Type Culture Collection and were grown in RPMI-1640 media (ATCC, 30-2001) supplemented with 10% heat-inactivated FBS (Corning Premium Fetal Bovine Serum from Fisher, MT35015CV).
Compounds of the present invention were added to 50,000 Ramos cells in round-bottom 96 well plates with a final DMSO concentration of […] and were incubated at 37° C., 5% CO2 for four hours. BTK levels were determined using Cisbio Total-BTK HTRF ([…] Time-Resolved Fluorescence) kit (63ADK064PEG) according to manufacturer's protocol. Briefly, cells were incubated in 1× supplied lysis buffer for 30 minutes. In an opaque white low volume 96 well plate (Cisbio, 66PL96005), cell lysate was combined with two different specific BTK antibodies, one conjugated with Eu^3+-Cryptate FRET donor and one conjugated with d2 FRET acceptor. Assay controls include wells containing cell lysate with only the Eu^3+-Cryptate FRET donor antibody and wells containing both HTRF antibodies and lysis buffer without cells or control lysate provided by Cisbio. HTRF ratio was calculated as (acceptor signal at 665 nm/donor signal at 620 nm)×10^4. Background HTRF levels were determined from the control well containing the donor, but no acceptor, antibody. Background HTRF levels were subtracted from all samples. Readouts were reported as HTRF levels relative to HTRF levels of DMSO-treated cells. Four-parameter non-linear regressions were performed in GraphPad Prism 7.02 to obtain DC50 values. DC50 values are provided in Table 3, wherein A<7.5 nM, 7.5 nM≤B≤50 nM, and 50 nM<C<500 nM.
`Cc1cc(Nc2nc(N3CCCC(NC(=O)CCOCCCc4cccc5c4CN(C4CCC(=O)NC4=O)C5=O)C3)cnc2C(N)=O)sn1` (stereo in doubt) [Compound 45, 5-[(3R)-3-(3-{3-[2-(2,6-dioxopiperidin-3-yl)-1-oxo-3H-isoindol-4-yl]propoxy}propanamido)piperidin-1-yl]-3-[(3-methyl-1,2-thiazol-5-yl)amino]pyrazine-2-carboxamide] showed a DC50 of 50 to 500 nM. Compound `CS(=O)(=O)c1ccc(Nc2nc(N3CCC[C@@H](NC(=O)OCCCCCOc4ccc5c(c4)C(=O)N(C4CCC(=O)NC4=O)C5=O)C3)cnc2C(N)=O)cc1` (stereo partly drawn) [Compound 2, 5-((2-(2,6-dioxopiperidin-3-yl)-1,3-dioxoisoindolin-5-yl)oxy)pentyl ((R)-1-(5-carbamoyl-6-((4-(methylsulfonyl)phenyl)amino)pyrazin-2-yl)piperidin-3-yl)carbamate] has a DC50 of 7.5 to 50 nM. `CS(=O)(=O)c1ccc(Nc2nc(N3CCC[C@@H](NC(=O)OCCCCCCCOc4ccc5c(c4)C(=O)N(C4CCC(=O)NC4=O)C5=O)C3)cnc2C(N)=O)cc1` (stereo partly drawn) [Compound 3, 7-((2-(2,6-dioxopiperidin-3-yl)-1,3-dioxoisoindolin-5-yl)oxy)heptyl ((R)-1-(5-carbamoyl-6-((4-(methylsulfonyl)phenyl)amino)pyrazin-2-yl)piperidin-3-yl)carbamate] gave a DC50 of 7.5 to 50 nM. With `CS(=O)(=O)c1ccc(Nc2nc(N3CCC[C@@H](NC(=O)CCCCc4ccc5c(c4)C(=O)N(C4CCC(=O)NC4=O)C5)C3)cnc2C(N)=O)cc1` (stereo partly drawn) [Compound 4, 5-[(3R)-3-{5-[2-(2,6-dioxopiperidin-3-yl)-3-oxo-1H-isoindol-5-yl]pentanamido}piperidin-1-yl]-3-[(4-methanesulfonylphenyl)amino]pyrazine-2-carboxamide] the DC50 was 50 to 500 nM. For `CS(=O)(=O)c1ccc(Nc2nc(N3CCC[C@@H](NC(=O)CCCCCCc4cccc5c4CN(C4CCC(=O)NC4=O)C5=O)C3)cnc2C(N)=O)cc1` (stereo partly drawn) [Compound 5, 5-[(3R)-3-{7-[2-(2,6-dioxopiperidin-3-yl)-1-oxo-3H-isoindol-4-yl]heptanamido}piperidin-1-yl]-3-[(4-methanesulfonylphenyl)amino]pyrazine-2-carboxamide], the DC50 was 50 to 500 nM. Compound `CS(=O)(=O)c1ccc(Nc2nc(N3CCC[C@@H](NC(=O)OCCC4CCN(c5ccc6c(c5)C(=O)N(C5CCC(=O)NC5=O)C6=O)CC4)C3)cnc2C(N)=O)cc1` (stereo partly drawn) [Compound 6, 2-(1-(2-(2,6-dioxopiperidin-3-yl)-1,3-dioxoisoindolin-5-yl)piperidin-4-yl)ethyl ((R)-1-(5-carbamoyl-6-((4-(methylsulfonyl)phenyl)amino)pyrazin-2-yl)piperidin-3-yl)carbamate] has a DC50 of 7.5 to 50 nM. `Cc1cc(Nc2nc(N3CCC[C@@H](NC(=O)OCCC4CCN(c5ccc6c(c5)C(=O)N(C5CCC(=O)NC5=O)C6=O)CC4)C3)cnc2C(N)=O)sn1` (stereo partly drawn) [Compound 7, 2-(1-(2-(2,6-dioxopiperidin-3-yl)-1,3-dioxoisoindolin-5-yl)piperidin-4-yl)ethyl ((R)-1-(5-carbamoyl-6-((3-methylisothiazol-5-yl)amino)pyrazin-2-yl)piperidin-3-yl)carbamate] gave a DC50 of 50 to 500 nM. For `CS(=O)(=O)c1ccc(Nc2nc(N3CCC[C@@H](NC(=O)OCC4CCN(c5ccc6c(c5)C(=O)N(C5CCC(=O)NC5=O)C6=O)CC4)C3)cnc2C(N)=O)cc1` (stereo partly drawn) [Compound 8, (1-(2-(2,6-dioxopiperidin-3-yl)-1,3-dioxoisoindolin-5-yl)piperidin-4-yl)methyl ((R)-1-(5-carbamoyl-6-((4-(methylsulfonyl)phenyl)amino)pyrazin-2-yl)piperidin-3-yl)carbamate], the DC50 was 7.5 to 50 nM. `CS(=O)(=O)c1ccc(Nc2nc(N3CCC[C@@H](NC(=O)OC[C@@H]4CCN(c5ccc6c(c5)C(=O)N(C5CCC(=O)NC5=O)C6=O)C4)C3)cnc2C(N)=O)cc1` (stereo partly drawn) [Compound 9, ((3R)-1-(2-(2,6-dioxopiperidin-3-yl)-1,3-dioxoisoindolin-5-yl)pyrrolidin-3-yl)methyl ((R)-1-(5-carbamoyl-6-((4-(methylsulfonyl)phenyl)amino)pyrazin-2-yl)piperidin-3-yl)carbamate] showed a DC50 of 50 to 500 nM. Compound `CS(=O)(=O)c1ccc(Nc2nc(N3CCC[C@@H](NC(=O)N4CCC5(CCN(c6ccc7c(c6)C(=O)N(C6CCC(=O)NC6=O)C7=O)CC5)C4)C3)cnc2C(N)=O)cc1` (stereo partly drawn) [Compound 10, N—((R)-1-(5-carbamoyl-6-((4-(methylsulfonyl)phenyl)amino)pyrazine-2-yl)piperidin-3-yl)-8-(2-(2,6-dioxopiperidin-3-yl)-1,3-dioxoisoindolin-5-yl)-2,8-diazaspiro[4.5]decane-2-carboxamide] has a DC50 of 7.5 to 50 nM. With `CS(=O)(=O)c1ccc(Nc2nc(N3CCC[C@@H](NC(=O)N4CCC5(CC4)CCN(c4ccc6c(c4)C(=O)N(C4CCC(=O)NC4=O)C6=O)CC5)C3)cnc2C(N)=O)cc1` (stereo partly drawn) [Compound 11, N-[(3R)-1-{5-carbamoyl-6-[(4-methanesulfonylphenyl)amino]pyrazin-2-yl}piperidin-3-yl]-9-[2-(2,6-dioxopiperidin-3-yl)-1,3-dioxoisoindol-5-yl]-3,9-diazaspiro[5.5]undecane-3-carboxamide] the DC50 was < 7.5 nM. Compound `Cc1cc(Nc2nc(N3CCC[C@@H](NC(=O)N4CCC5(CC4)CCN(c4ccc6c(c4)C(=O)N(C4CCC(=O)NC4=O)C6=O)CC5)C3)cnc2C(N)=O)sn1` (stereo partly drawn) [Compound 12, N-[(3R)-1-{5-carbamoyl-6-[(3-methyl-1,2-thiazol-5-yl)amino]pyrazin-2-yl}piperidin-3-yl]-9-[2-(2,6-dioxopiperidin-3-yl)-1,3-dioxoisoindol-5-yl]-3,9-diazaspiro[5.5]undecane-3-carboxamide] has a DC50 of 7.5 to 50 nM. With `CS(=O)(=O)c1ccc(Nc2nc(N3CCC[C@@H](NC(=O)N4CCC5(CCN(Cc6ccc7c(c6)C(=O)N(C6CCC(=O)NC6=O)C7=O)C5)CC4)C3)cnc2C(N)=O)cc1` (stereo partly drawn) [Compound 13, N-[(3R)-1-{5-carbamoyl-6-[(4-methanesulfonylphenyl)amino]pyrazin-2-yl}piperidin-3-yl]-2-{[2-(2,6-dioxopiperidin-3-yl)-1,3-dioxoisoindol-5-yl]methyl}-2,8-diazaspiro[4.5]decane-8-carboxamide] the DC50 was < 7.5 nM. With `CS(=O)(=O)c1ccc(Nc2nc(N3CCC[C@@H](NC(=O)C4CCN(CC5CCN(c6ccc7c(c6)C(=O)N(C6CCC(=O)NC6=O)C7=O)CC5)C4)C3)cnc2C(N)=O)cc1` (stereo partly drawn) [Compound 14, 5-[(3R)-3-[1-({1-[2-(2,6-dioxopiperidin-3-yl)-1,3-dioxoisoindol-5-yl]piperidin-4-yl}methyl)pyrrolidine-3-amido]piperidin-1-yl]-3-[(4-methanesulfonylphenyl)amino]pyrazine-2-carboxamide] the DC50 was < 7.5 nM. In the case of `Cc1cc(Nc2nc(N3CCC[C@@H](NC(=O)C4CCN(CC5CCN(c6ccc7c(c6)C(=O)N(C6CCC(=O)NC6=O)C7=O)CC5)C4)C3)cnc2C(N)=O)sn1` (stereo partly drawn) [Compound 15, 5-[(3R)-3-[1-({1-[2-(2,6-dioxopiperidin-3-yl)-1,3-dioxoisoindol-5-yl]piperidin-4-yl}methyl)pyrrolidine-3-amido]piperidin-1-yl]-3-[(3-methyl-1,2-thiazol-5-yl)amino]pyrazine-2-carboxamide], the DC50 is reported as < 7.5 nM. With `Cc1cc(Nc2nc(N3CCC[C@@H](NC(=O)C4CCN(CC5CN(c6ccc7c(c6)C(=O)N(C6CCC(=O)NC6=O)C7=O)C5)C4)C3)cnc2C(N)=O)sn1` (stereo partly drawn) [Compound 16, 5-[(3R)-3-[1-({1-[2-(2,6-dioxopiperidin-3-yl)-1,3-dioxoisoindol-5-yl]azetidin-3-yl}methyl)pyrrolidine-3-amido]piperidin-1-yl]-3-[(3-methyl-1,2-thiazol-5-yl)amino]pyrazine-2-carboxamide] the DC50 was < 7.5 nM. For `Cc1cc(Nc2nc(N3CCC[C@@H](NC(=O)C4CCN(CC5CN(c6ccc7c(c6)C(=O)N(C6CCC(=O)NC6=O)C7=O)C5)CC4)C3)cnc2C(N)=O)sn1` (stereo partly drawn) [Compound 17, 5-[(3R)-3-[1-({1-[2-(2,6-dioxopiperidin-3-yl)-1,3-dioxoisoindol-5-yl]azetidin-3-yl}methyl)piperidine-4-amido]piperidin-1-yl]-3-[(3-methyl-1,2-thiazol-5-yl)amino]pyrazine-2-carboxamide], the DC50 was < 7.5 nM. In the case of `Cc1cc(Nc2nc(N3CCC[C@@H](NC(=O)N4CCN(CC5CN(c6ccc7c(c6)C(=O)N(C6CCC(=O)NC6=O)C7=O)C5)CC4)C3)cnc2C(N)=O)sn1` (stereo partly drawn) [Compound 18, 5-[(3R)-3-[4-({1-[2-(2,6-dioxopiperidin-3-yl)-1,3-dioxoisoindol-5-yl]azetidin-3-yl}methyl)piperazine-1-carbonylamino]piperidin-1-yl]-3-[(3-methyl-1,2-thiazol-5-yl)amino]pyrazine-2-carboxamide], the DC50 is reported as < 7.5 nM. With `Cn1cc(Nc2nc(N3CCC[C@@H](NC(=O)C4CCN(CC5CN(c6ccc7c(c6)C(=O)N(C6CCC(=O)NC6=O)C7=O)C5)CC4)C3)cnc2C(N)=O)cn1` (stereo partly drawn) [Compound 19, 5-[(3R)-3-[1-({1-[2-(2,6-dioxopiperidin-3-yl)-1,3-dioxoisoindol-5-yl]azetidin-3-yl}methyl)piperidine-4-amido]piperidin-1-yl]-3-[(1-methylpyrazol-4-yl)amino]pyrazine-2-carboxamide] the DC50 was < 7.5 nM.
